Data from PubChem BioAssay (NCI).
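Dose response: 5 concentrations. Exposure: 48 h. Format: 96-well plates. Endpoint: linear interpolation; highest concentration if not reached. GI50 = concentration required for 50% inhibition of growth. At the TGI there is no net growth.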

Legend:
Assay in all cases: DTP human tumour cell line panel, 48 h
A549 NSCLC = test system: A549 NSCLC
ACHN renal = test system: ACHN renal
NCI-H522 lung = test system: NCI-H522 lung
HL-60(TB) leukemia = test system: HL-60(TB) leukemia
K-562 leukemia = test system: K-562 leukemia
SK-MEL-5 melanoma = test system: SK-MEL-5 melanoma
SF-268 CNS = test system: SF-268 CNS
HCC-2998 colon = test system: HCC-2998 colon
SK-MEL-28 melanoma = test system: SK-MEL-28 melanoma
MCF7 breast = test system: MCF7 breast
SR leukemia = test system: SR leukemia
OVCAR-3 ovarian = test system: OVCAR-3 ovarian
HCT-116 colon = test system: HCT-116 colon
LOX IMVI melanoma = test system: LOX IMVI melanoma
U251 CNS = test system: U251 CNS
HT29 colon = test system: HT29 colon
SNB-75 CNS = test system: SNB-75 CNS
CAKI-1 renal = test system: CAKI-1 renal
RPMI-8226 leukemia = test system: RPMI-8226 leukemia
BT-549 breast = test system: BT-549 breast
OVCAR-8 ovarian = test system: OVCAR-8 ovarian
786-0 renal = test system: 786-0 renal
HOP-62 NSCLC = test system: HOP-62 NSCLC
UO-31 renal = test system: UO-31 renal
HCT-15 colon = test system: HCT-15 colon
KM12 colon = test system: KM12 colon
NCI-H23 lung = test system: NCI-H23 lung
HS 578T breast = test system: HS 578T breast
TK-10 renal = test system: TK-10 renal
EKVX NSCLC = test system: EKVX NSCLC
HOP-92 NSCLC = test system: HOP-92 NSCLC
UACC-62 melanoma = test system: UACC-62 melanoma
SK-MEL-2 melanoma = test system: SK-MEL-2 melanoma
MDA-MB-231 breast = test system: MDA-MB-231 breast
PC-3 prostate = test system: PC-3 prostate
IGROV1 ovarian = test system: IGROV1 ovarian
SF-295 CNS = test system: SF-295 CNS
SW-620 colon = test system: SW-620 colon
DU-145 prostate = test system: DU-145 prostate
T-47D breast = test system: T-47D breast
MOLT-4 leukemia = test system: MOLT-4 leukemia
CCRF-CEM leukemia = test system: CCRF-CEM leukemia
OVCAR-5 ovarian = test system: OVCAR-5 ovarian
NCI/ADR-RES ovarian = test system: NCI/ADR-RES ovarian
NCI-H226 lung = test system: NCI-H226 lung
RXF 393 renal = test system: RXF 393 renal
SK-OV-3 ovarian = test system: SK-OV-3 ovarian
NCI-H460 lung = test system: NCI-H460 lung
UACC-257 melanoma = test system: UACC-257 melanoma
SF-539 CNS = test system: SF-539 CNS
SNB-19 CNS = test system: SNB-19 CNS
M14 melanoma = test system: M14 melanoma
COLO 205 colon = test system: COLO 205 colon
MDA-MB-468 breast = test system: MDA-MB-468 breast
MDA-MB-435 = test system: MDA-MB-435
SN12C renal = test system: SN12C renal
A498 renal = test system: A498 renal
MALME-3M melanoma = test system: MALME-3M melanoma
OVCAR-4 ovarian = test system: OVCAR-4 ovarian

What does the source list for `COc1ccc2[nH]cc(/C=N/Nc3ccc(Br)cn3)c2c1`?
GI50 (A549 NSCLC): 8.12 µM; TGI (A549 NSCLC): > 100 µM; GI50 (ACHN renal): 7.76 µM; TGI (ACHN renal): > 100 µM; GI50 (NCI-H522 lung): 3.11 µM; TGI (NCI-H522 lung): 33.5 µM; GI50 (HL-60(TB) leukemia): 2.54 µM; TGI (HL-60(TB) leukemia): 28.3 µM; GI50 (K-562 leukemia): 2.94 µM; TGI (K-562 leukemia): > 100 µM; GI50 (SK-MEL-5 melanoma): 7.41 µM; TGI (SK-MEL-5 melanoma): 25.3 µM; GI50 (SF-268 CNS): 5.23 µM; TGI (SF-268 CNS): > 100 µM; GI50 (HCC-2998 colon): 5.74 µM; TGI (HCC-2998 colon): 32.5 µM; GI50 (SK-MEL-28 melanoma): 29.1 µM; TGI (SK-MEL-28 melanoma): > 100 µM; GI50 (MCF7 breast): 1.7 µM; TGI (MCF7 breast): > 100 µM; GI50 (SR leukemia): 4.8 µM; TGI (SR leukemia): 58.3 µM; GI50 (OVCAR-3 ovarian): 11.6 µM; TGI (OVCAR-3 ovarian): > 100 µM; GI50 (HCT-116 colon): 5.97 µM; TGI (HCT-116 colon): > 100 µM; GI50 (LOX IMVI melanoma): 3.4 µM; TGI (LOX IMVI melanoma): 24.7 µM; GI50 (U251 CNS): 15.9 µM; TGI (U251 CNS): > 100 µM; GI50 (HT29 colon): 8.77 µM; TGI (HT29 colon): > 100 µM; GI50 (SNB-75 CNS): 0.286 µM; TGI (SNB-75 CNS): 55.1 µM; GI50 (CAKI-1 renal): 3.01 µM; TGI (CAKI-1 renal): > 100 µM; GI50 (RPMI-8226 leukemia): 1.62 µM; TGI (RPMI-8226 leukemia): 9.07 µM; GI50 (BT-549 breast): 0.176 µM; TGI (BT-549 breast): > 100 µM; GI50 (OVCAR-8 ovarian): 20.8 µM; TGI (OVCAR-8 ovarian): > 100 µM; GI50 (786-0 renal): 12.6 µM; TGI (786-0 renal): 40.1 µM; GI50 (HOP-62 NSCLC): 10.1 µM; TGI (HOP-62 NSCLC): > 100 µM; GI50 (UO-31 renal): 1.09 µM; TGI (UO-31 renal): > 100 µM; GI50 (HCT-15 colon): 4.46 µM; TGI (HCT-15 colon): > 100 µM; GI50 (KM12 colon): 2.71 µM; TGI (KM12 colon): 24.7 µM; GI50 (NCI-H23 lung): 11.6 µM; TGI (NCI-H23 lung): > 100 µM; GI50 (HS 578T breast): 6.91 µM; TGI (HS 578T breast): 68.2 µM; GI50 (TK-10 renal): 18.6 µM; TGI (TK-10 renal): > 100 µM; GI50 (EKVX NSCLC): 2.71 µM; TGI (EKVX NSCLC): > 100 µM; GI50 (HOP-92 NSCLC): 2.22 µM; TGI (HOP-92 NSCLC): 19.3 µM; GI50 (UACC-62 melanoma): 8.45 µM; TGI (UACC-62 melanoma): > 100 µM; GI50 (SK-MEL-2 melanoma): 21.4 µM; TGI (SK-MEL-2 melanoma): 81.8 µM; GI50 (MDA-MB-231 breast): 1.93 µM; TGI (MDA-MB-231 breast): 8.71 µM; GI50 (PC-3 prostate): 2.55 µM; TGI (PC-3 prostate): > 100 µM; GI50 (IGROV1 ovarian): 0.634 µM; TGI (IGROV1 ovarian): 6.41 µM; GI50 (SF-295 CNS): 9.13 µM; TGI (SF-295 CNS): 48.4 µM; GI50 (SW-620 colon): 15.7 µM; TGI (SW-620 colon): > 100 µM; GI50 (DU-145 prostate): 13.3 µM; TGI (DU-145 prostate): > 100 µM; GI50 (T-47D breast): 3.22 µM; TGI (T-47D breast): > 100 µM; GI50 (MOLT-4 leukemia): 2.85 µM; TGI (MOLT-4 leukemia): > 100 µM; GI50 (CCRF-CEM leukemia): 0.466 µM; TGI (CCRF-CEM leukemia): 41 µM; GI50 (OVCAR-5 ovarian): 4.17 µM; TGI (OVCAR-5 ovarian): 79.4 µM; GI50 (NCI/ADR-RES ovarian): 5.33 µM; TGI (NCI/ADR-RES ovarian): > 100 µM; GI50 (NCI-H226 lung): 2.02 µM; TGI (NCI-H226 lung): > 100 µM; GI50 (RXF 393 renal): 2.09 µM; TGI (RXF 393 renal): 31.5 µM; GI50 (SK-OV-3 ovarian): 6.19 µM; TGI (SK-OV-3 ovarian): > 100 µM; GI50 (NCI-H460 lung): 7.68 µM; TGI (NCI-H460 lung): > 100 µM; GI50 (UACC-257 melanoma): 25.1 µM; TGI (UACC-257 melanoma): > 100 µM; GI50 (SF-539 CNS): 2.65 µM; TGI (SF-539 CNS): 37.3 µM; GI50 (SNB-19 CNS): 20.7 µM; TGI (SNB-19 CNS): > 100 µM; GI50 (M14 melanoma): 7.27 µM; TGI (M14 melanoma): > 100 µM; GI50 (COLO 205 colon): 15.7 µM; TGI (COLO 205 colon): 67.9 µM; GI50 (MDA-MB-468 breast): 1.74 µM; TGI (MDA-MB-468 breast): 6.4 µM; GI50 (MDA-MB-435): 6.73 µM; TGI (MDA-MB-435): > 100 µM; GI50 (SN12C renal): 2.38 µM; TGI (SN12C renal): 65.9 µM; GI50 (A498 renal): 20.5 µM; TGI (A498 renal): 61.7 µM; GI50 (MALME-3M melanoma): 82.7 µM; TGI (MALME-3M melanoma): > 100 µM; GI50 (OVCAR-4 ovarian): 43.2 µM; TGI (OVCAR-4 ovarian): > 100 µM
